What was measured:
[1] = molecular target: Human opiate κ receptors (Homo sapiens, UniProt P41145); test: κ opioid receptor functional assay, [35S]GTPγS binding (assay C); assay type: biochemical
[2] = tested on: oxazolone delayed type hypersensitivity reaction; test: In vivo model for pruritus associated with the oxazolone model of a delayed type hypersensitivity reaction (assay D); set-up: species or system mice
Experimental: D. In Vivo Model for Pruritus Associated with the Oxazolone Model of a Delayed Type Hypersensitivity Reaction
Scratching activity in mice is measured after topical application of the test compound.

[3] = tested on: chronic oxazolone-induced ear inflammation; test: In vivo model of chronic oxazolone-induced ear inflammation (assay E); set-up: species or system mice
Experimental: E. In Vivo Model of Chronic Oxazolone-Induced Ear Inflammation
Mice are challenged several times with oxazolone following an initial sensitization. Ear thickness is measured daily during the treatment period with topical application of the test compound (see e.g. Ottosen E. R. J. Med. Chem. 2003; 46: 5651-5662). At the end of the study ear weight is determined Ears are characterized histologically and by immunofluorescence. Gene expression was quantified (RT-qPCR).

[4] = tested on: arachidonic acid-induced ear inflammation; assay type: in vivo, mice; conditions: mouse, in vivo, sc
[5] = tested on: acetic acid-induced writhing; test: Acetic acid-induced writhing assay in mice (assay G); assay type: in vivo; conditions: s.c.
Experimental: G. Acetic Acid-Induced Writhing Assay in Mice
Analgesic activity against visceral or chemical pain is assessed by application of the test compound prior to application of an i.p. injection of acetic acid. The number of writhing responses that occur in response to acetic acid are counted (see e.g. Barber A. Med. Res. Rev. 1992; 12:525-62 and Ramabadran K. Pharm. Res. 1986,3:263-270).

[6] = tested on: UVB-induced inflammatory pain; test: UVB-induced inflammatory pain in rats (assay H); assay type: in vivo, Sprague-Dawley rats; conditions: s.c.
Experimental: H. UVB-Induced Inflammatory Pain In Rats
Male, Sprague-Dawley rats receive a single exposure of UVB radiation to the left hind paw. Mechanical hyperalgesia is assessed using a digital Randall-Selitto device (dRS). Thermal hyperalgesia is measured using a plantar test apparatus (see e.g. Davies S. L. J. Neurosci. Methods 2005; 148:161-166, Bishop T. Pain 2007; 131:70-82 and Graham I. J. Invest. Dermatol. 2004; 122:183-189).

[7] = tested on: vasculitis; test: Vasculitis model in mice, LPS/TNF-α (assay I); assay type: in vivo, C57BL/6 mice; conditions: dose dependent
Experimental: I. Vasculitis Model in Mice
C57BL/6 mice receive an intradermal injection of LPS. On the following day vasculitis is induced by intradermal injection of TNF-α. In addition Evan's blue is injected. 24 hours following the injection of TNF-α mice are scarified. Ear thickness is measured and the degree of vasculitis is assessed by counting petechiae. The content of Evan's blue in the ear tissue is a marker for vascular permeability. Ears are analyzed by histology, FACS and RT-qPCR.

[8] = tested on: Imiquimod-induced psoriasis; test: Imiquimod-induced psoriasis in mice (assay J); assay type: in vivo, Balb/c mice; conditions: s.c. or i.v.
Experimental: J. Imiquimod-Induced Psoriasis in Mice
Psoriasis in Balb/c mice is induced by daily application of topical Imiquimod for 8 days. Animal are treated with the test items (topical or systemically). Scratching was monitored. On day 9 the skin phenotype is characterized. Skin is analyzed histologically. Lymph nodes are analyzed by flow cytometry and RT-qPCR.

[9] = tested on: DSS-induced colitis; test: DSS-induced colitis in mice (assay K); assay type: in vivo, C57BL/6 mice
Experimental: K. DSS-Induced Colitis in Mice
Colitis is induced by treatment of C57BL/6 mice with 2.5% dextran sulfate (DSS) in the drinking water for 7 days. Mice are treated with the test item. Weight is monitored daily. At day 8 mice are scarified. A haemocult test is performed. The size of the colon is measured. Colitis is determined using a scoring system in H&E stains.

Chain of Human opiate κ receptors (P41145 whole entry): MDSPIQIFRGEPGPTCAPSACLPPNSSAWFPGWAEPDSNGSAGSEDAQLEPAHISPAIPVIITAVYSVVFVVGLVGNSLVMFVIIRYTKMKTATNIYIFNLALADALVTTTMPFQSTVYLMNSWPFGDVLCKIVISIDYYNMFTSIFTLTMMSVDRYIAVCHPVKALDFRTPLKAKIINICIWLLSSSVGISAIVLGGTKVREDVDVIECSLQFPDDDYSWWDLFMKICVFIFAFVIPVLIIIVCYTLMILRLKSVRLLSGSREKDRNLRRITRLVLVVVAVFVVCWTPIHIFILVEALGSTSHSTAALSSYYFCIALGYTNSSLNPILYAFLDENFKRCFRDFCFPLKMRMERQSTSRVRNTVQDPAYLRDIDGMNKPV

COC(=O)N1CCN(C(=O)Cc2ccc(Cl)c(Cl)c2)[C@@H]2[C@@H](N3CCCC3)CCC[C@@H]21 [Example 89, (4aR,5S,8aS)-methyl 4-(2-(3,4-dichlorophenyl)acetyl)-5-(pyrrolidin-1-yl)octahydroquinoxaline-1(2H)-carboxylate]
% activation functional assay at 1 μM [1]: 100% | activation at 1 µM ([1]; 0.5 h, read-out: % activation functional assay at 1 μM): 107% | number of scratch events ([2]; mice, topical): significantly reduced | ear thickness ([2]; mice, topical, compared to vehicle treated animals): accelerated decrease | epidermal thickness, inflammatory infiltrate and epidermal oedema (histology) ([2]; semi-quantitative analysis): reduction | inflammatory infiltrate (CD117+ mast cells and Gr-1+ neutrophils) ([3]; immunohistochemistry): dose dependent reduction | ear thickness ([3]; mice, topical, compared to vehicle control): dose dependent decreased | epidermal thickness, inflammatory infiltrate and epidermal oedema (histology) ([3]; semi-quantitative analysis): reduction | increase in ear thickness [4]: prevented the increase | scratching activity [4]: significantly reduced | number of writhing responses [5]: significant, dose dependent reduction | thermal hyperalgesia [6]: significant, dose dependent reduction | ear thickness [7]: reduction | inflammatory infiltrate (histology) [7]: reduced inflammatory infiltrate | number of petechiae [7]: reduced number | scratch numbers [8]: lower | size of the rete ridges ([8]; compared to vehicle control): decreased size | weight loss ([9]; compared to vehicle control): decreased weight loss | reduction in colon size induced by DSS ([9]; mouse, in vivo): normalized
